Measured values: US20230392217A1 (priority 2020, published 2023)
Where two headings read alike, the source gives them in different places.

How the values were obtained:
[1] = tested on: SosA protein of Staphylococcus aureus; assay: SosA expression of Staphylococcus aureus according to concentration of ciprofloxacin, detected using SosA antibodies; format: cell-based; conditions: detected using the SosA antibody, FIG. 10
Method: Pellets of microorganisms were suspended with 1 ml of DPBS containing sosA-specific antibodies that were diluted at 1:2,000 and cultured overnight at 37° C., 180 rpm. Thereafter, centrifugation was performed at 13,000 rpm for 1 minute, secondary antibodies (anti-mouse FITC, Abcam) diluted at 1:500 were treated, and culture was performed at 37° C., 180 rpm for 3 hours. 100 ul of a sample was transferred to a 12-well plate containing an 18 mm cover glass and centrifuged at 1,100 rpm for 1 minute, and the bacteria were attached to a cover glass. The plates were washed three times with DPBS, and centrifugation was performed at 1,100 rpm for 1 minute. The cover glass was attached to the slide, and then imaging was performed using the Zeiss LSM 5 live confocal microscope. Images were acquired using Plan-Apochromat 63×1.4 NA objectives, and analysis was performed to detect GFP fluorescence by setting to 488 nm for excitation wavelength and 513±12 nm for emission wavelength.
In addition, each sample was transferred to a 96-well plate, and absorbance measurement and fluorescence analysis were performed using Ensight (PerkinElmer). In the case of green fluorescence, the excitation wavelength was at 488 nm and the emission wavelength was at 528 nm, and in the case of red fluorescence, the excitation wavelength was at 558 nm and the emission wavelength was at 615 nm. […]

[2] = tested on: methicillin-sensitive S. aureus (MSSA); conditions: cited from earlier work
[3] = tested on: methicillin-resistant S. aureus (MRSA); conditions: cited from earlier work

## O=C(O)c1cn(C2CC2)c2cc(N3CCNCC3)c(F)cc2c1=O [Ciprofloxacin, ciprofloxacin]
[1]
  expression of SosA: increases with the increase in the administration concentration
[2]; strain MSSA #1
  antibiotic susceptibility/resistance: Susceptible
[2]; strain MSSA #2
  antibiotic susceptibility/resistance: Susceptible
[2]; strain MSSA #3
  antibiotic susceptibility/resistance: Susceptible
[2]; strain MSSA #4
  antibiotic susceptibility/resistance: Susceptible
[2]; strain MSSA #5
  antibiotic susceptibility/resistance: Susceptible
[2]; strain MSSA #6
  antibiotic susceptibility/resistance: Susceptible
[2]; strain MSSA #7
  antibiotic susceptibility/resistance: Resistant
[2]; strain MSSA #8
  antibiotic susceptibility/resistance: Resistant
[2]; strain MSSA #9
  antibiotic susceptibility/resistance: Susceptible
[2]; strain MSSA #10
  antibiotic susceptibility/resistance: Susceptible
[2]; strain MSSA #11
  antibiotic susceptibility/resistance: Susceptible
[2]; strain MSSA #12
  antibiotic susceptibility/resistance: Susceptible
[2]; strain MSSA #13
  antibiotic susceptibility/resistance: Susceptible
[2]; strain MSSA #14
  antibiotic susceptibility/resistance: Susceptible
[2]; strain MSSA #15
  antibiotic susceptibility/resistance: Susceptible
[2]; strain MSSA #16
  antibiotic susceptibility/resistance: Susceptible
[2]; strain MSSA #17
  antibiotic susceptibility/resistance: Susceptible
[2]; strain MSSA #18
  antibiotic susceptibility/resistance: Susceptible
[2]; strain MSSA #19
  antibiotic susceptibility/resistance: Susceptible
[2]; strain MSSA #20
  antibiotic susceptibility/resistance: Resistant
[3]; strain MRSA #1
  antibiotic susceptibility/resistance: Resistant
[3]; strain MRSA #2
  antibiotic susceptibility/resistance: Resistant
[3]; strain MRSA #3
  antibiotic susceptibility/resistance: Susceptible
[3]; strain MRSA #4
  antibiotic susceptibility/resistance: Susceptible
[3]; strain MRSA #5
  antibiotic susceptibility/resistance: Resistant
[3]; strain MRSA #6
  antibiotic susceptibility/resistance: Resistant
[3]; strain MRSA #7
  antibiotic susceptibility/resistance: Resistant
[3]; strain MRSA #8
  antibiotic susceptibility/resistance: Resistant
[3]; strain MRSA #9
  antibiotic susceptibility/resistance: Resistant
[3]; strain MRSA #10
  antibiotic susceptibility/resistance: Resistant
[3]; strain MRSA #11
  antibiotic susceptibility/resistance: Resistant
[3]; strain MRSA #12
  antibiotic susceptibility/resistance: Resistant
[3]; strain MRSA #13
  antibiotic susceptibility/resistance: Resistant
[3]; strain MRSA #14
  antibiotic susceptibility/resistance: Resistant
[3]; strain MRSA #15
  antibiotic susceptibility/resistance: Resistant
[3]; strain MRSA #16
  antibiotic susceptibility/resistance: Resistant
[3]; strain MRSA #17
  antibiotic susceptibility/resistance: Resistant
[3]; strain MRSA #18
  antibiotic susceptibility/resistance: Susceptible
[3]; strain MRSA #19
  antibiotic susceptibility/resistance: Resistant
[3]; strain MRSA #20
  antibiotic susceptibility/resistance: Resistant
[3]; strain MRSA #21
  antibiotic susceptibility/resistance: Resistant
[3]; strain MRSA #22
  antibiotic susceptibility/resistance: Resistant
[3]; strain MRSA #23
  antibiotic susceptibility/resistance: Resistant
[3]; strain MRSA #24
  antibiotic susceptibility/resistance: Susceptible
[3]; strain MRSA #25
  antibiotic susceptibility/resistance: Resistant
[3]; strain MRSA #26
  antibiotic susceptibility/resistance: Susceptible
[3]; strain MRSA #27
  antibiotic susceptibility/resistance: Susceptible
[3]; strain MRSA #28
  antibiotic susceptibility/resistance: Resistant
[3]; strain MRSA #29
  antibiotic susceptibility/resistance: Resistant
[3]; strain MRSA #30
  antibiotic susceptibility/resistance: Resistant

## COc1cccc(OC)c1C(=O)N[C@@H]1C(=O)N2[C@@H]1SC(C)(C)[C@@H]2C(=O)O [Methicillin, methicillin]
[2]; strain MSSA #1
  antibiotic susceptibility/resistance: Susceptible
[2]; strain MSSA #2
  antibiotic susceptibility/resistance: Susceptible
[2]; strain MSSA #3
  antibiotic susceptibility/resistance: Susceptible
[2]; strain MSSA #4
  antibiotic susceptibility/resistance: Susceptible
[2]; strain MSSA #5
  antibiotic susceptibility/resistance: Susceptible
[2]; strain MSSA #6
  antibiotic susceptibility/resistance: Susceptible
[2]; strain MSSA #7
  antibiotic susceptibility/resistance: Susceptible
[2]; strain MSSA #8
  antibiotic susceptibility/resistance: Susceptible
[2]; strain MSSA #9
  antibiotic susceptibility/resistance: Susceptible
[2]; strain MSSA #10
  antibiotic susceptibility/resistance: Susceptible
[2]; strain MSSA #11
  antibiotic susceptibility/resistance: Susceptible
[2]; strain MSSA #12
  antibiotic susceptibility/resistance: Susceptible
[2]; strain MSSA #13
  antibiotic susceptibility/resistance: Susceptible
[2]; strain MSSA #14
  antibiotic susceptibility/resistance: Susceptible
[2]; strain MSSA #15
  antibiotic susceptibility/resistance: Susceptible
[2]; strain MSSA #16
  antibiotic susceptibility/resistance: Susceptible
[2]; strain MSSA #17
  antibiotic susceptibility/resistance: Susceptible
[2]; strain MSSA #18
  antibiotic susceptibility/resistance: Susceptible
[2]; strain MSSA #19
  antibiotic susceptibility/resistance: Susceptible
[2]; strain MSSA #20
  antibiotic susceptibility/resistance: Susceptible
[3]; strain MRSA #1
  antibiotic susceptibility/resistance: Resistant
[3]; strain MRSA #2
  antibiotic susceptibility/resistance: Resistant
[3]; strain MRSA #3
  antibiotic susceptibility/resistance: Resistant
[3]; strain MRSA #4
  antibiotic susceptibility/resistance: Resistant
[3]; strain MRSA #5
  antibiotic susceptibility/resistance: Resistant
[3]; strain MRSA #6
  antibiotic susceptibility/resistance: Resistant
[3]; strain MRSA #7
  antibiotic susceptibility/resistance: Resistant
[3]; strain MRSA #8
  antibiotic susceptibility/resistance: Resistant
[3]; strain MRSA #9
  antibiotic susceptibility/resistance: Resistant
[3]; strain MRSA #10
  antibiotic susceptibility/resistance: Resistant
[3]; strain MRSA #11
  antibiotic susceptibility/resistance: Resistant
[3]; strain MRSA #12
  antibiotic susceptibility/resistance: Resistant
[3]; strain MRSA #13
  antibiotic susceptibility/resistance: Resistant
[3]; strain MRSA #14
  antibiotic susceptibility/resistance: Resistant
[3]; strain MRSA #15
  antibiotic susceptibility/resistance: Resistant
[3]; strain MRSA #16
  antibiotic susceptibility/resistance: Resistant
[3]; strain MRSA #17
  antibiotic susceptibility/resistance: Resistant
[3]; strain MRSA #18
  antibiotic susceptibility/resistance: Resistant
[3]; strain MRSA #19
  antibiotic susceptibility/resistance: Resistant
[3]; strain MRSA #20
  antibiotic susceptibility/resistance: Resistant
[3]; strain MRSA #21
  antibiotic susceptibility/resistance: Resistant
[3]; strain MRSA #22
  antibiotic susceptibility/resistance: Resistant
[3]; strain MRSA #23
  antibiotic susceptibility/resistance: Resistant
[3]; strain MRSA #24
  antibiotic susceptibility/resistance: Susceptible
[3]; strain MRSA #25
  antibiotic susceptibility/resistance: Resistant
[3]; strain MRSA #26
  antibiotic susceptibility/resistance: Resistant
[3]; strain MRSA #27
  antibiotic susceptibility/resistance: Resistant
[3]; strain MRSA #28
  antibiotic susceptibility/resistance: Resistant
[3]; strain MRSA #29
  antibiotic susceptibility/resistance: Resistant
[3]; strain MRSA #30
  antibiotic susceptibility/resistance: Resistant

## CN[C@H](CC(C)C)C(=O)N[C@H]1C(=O)N[C@@H](CC(N)=O)C(=O)N[C@H]2C(=O)N[C@H]3C(=O)N[C@H](C(=O)N[C@H](C(=O)O)c4cc(O)cc(O)c4-c4cc3ccc4O)[C@H](O)c3ccc(c(Cl)c3)Oc3cc2cc(c3O[C@@H]2O[C@H](CO)[C@@H](O)[C@H](O)[C@H]2O[C@H]2C[C@](C)(N)[C@H](O)[C@H](C)O2)Oc2ccc(cc2Cl)[C@H]1O [Vancomycin, vancomycin]
[2]; strain MSSA #1
  antibiotic susceptibility/resistance: Susceptible
[2]; strain MSSA #2
  antibiotic susceptibility/resistance: Susceptible
[2]; strain MSSA #3
  antibiotic susceptibility/resistance: Susceptible
[2]; strain MSSA #4
  antibiotic susceptibility/resistance: Susceptible
[2]; strain MSSA #5
  antibiotic susceptibility/resistance: Susceptible
[2]; strain MSSA #6
  antibiotic susceptibility/resistance: Susceptible
[2]; strain MSSA #7
  antibiotic susceptibility/resistance: Susceptible
[2]; strain MSSA #8
  antibiotic susceptibility/resistance: Susceptible
[2]; strain MSSA #9
  antibiotic susceptibility/resistance: Susceptible
[2]; strain MSSA #10
  antibiotic susceptibility/resistance: Susceptible
[2]; strain MSSA #11
  antibiotic susceptibility/resistance: Susceptible
[2]; strain MSSA #12
  antibiotic susceptibility/resistance: Susceptible
[2]; strain MSSA #13
  antibiotic susceptibility/resistance: Susceptible
[2]; strain MSSA #14
  antibiotic susceptibility/resistance: Susceptible
[2]; strain MSSA #15
  antibiotic susceptibility/resistance: Susceptible
[2]; strain MSSA #16
  antibiotic susceptibility/resistance: Susceptible
[2]; strain MSSA #17
  antibiotic susceptibility/resistance: Susceptible
[2]; strain MSSA #18
  antibiotic susceptibility/resistance: Susceptible
[2]; strain MSSA #19
  antibiotic susceptibility/resistance: Susceptible
[2]; strain MSSA #20
  antibiotic susceptibility/resistance: Susceptible
[3]; strain MRSA #1
  antibiotic susceptibility/resistance: Susceptible
[3]; strain MRSA #2
  antibiotic susceptibility/resistance: Susceptible
[3]; strain MRSA #3
  antibiotic susceptibility/resistance: Susceptible
[3]; strain MRSA #4
  antibiotic susceptibility/resistance: Susceptible
[3]; strain MRSA #5
  antibiotic susceptibility/resistance: Susceptible
[3]; strain MRSA #6
  antibiotic susceptibility/resistance: Susceptible
[3]; strain MRSA #7
  antibiotic susceptibility/resistance: Susceptible
[3]; strain MRSA #8
  antibiotic susceptibility/resistance: Susceptible
[3]; strain MRSA #9
  antibiotic susceptibility/resistance: Susceptible
[3]; strain MRSA #10
  antibiotic susceptibility/resistance: Susceptible
[3]; strain MRSA #11
  antibiotic susceptibility/resistance: Susceptible
[3]; strain MRSA #12
  antibiotic susceptibility/resistance: Susceptible
[3]; strain MRSA #13
  antibiotic susceptibility/resistance: Susceptible
[3]; strain MRSA #14
  antibiotic susceptibility/resistance: Susceptible
[3]; strain MRSA #15
  antibiotic susceptibility/resistance: Susceptible
[3]; strain MRSA #16
  antibiotic susceptibility/resistance: Susceptible
[3]; strain MRSA #17
  antibiotic susceptibility/resistance: Susceptible
[3]; strain MRSA #18
  antibiotic susceptibility/resistance: Susceptible
[3]; strain MRSA #19
  antibiotic susceptibility/resistance: Susceptible
[3]; strain MRSA #20
  antibiotic susceptibility/resistance: Resistant
[3]; strain MRSA #21
  antibiotic susceptibility/resistance: Susceptible
[3]; strain MRSA #22
  antibiotic susceptibility/resistance: Susceptible
[3]; strain MRSA #23
  antibiotic susceptibility/resistance: Susceptible
[3]; strain MRSA #24
  antibiotic susceptibility/resistance: Susceptible
[3]; strain MRSA #25
  antibiotic susceptibility/resistance: Susceptible
[3]; strain MRSA #26
  antibiotic susceptibility/resistance: Susceptible
[3]; strain MRSA #27
  antibiotic susceptibility/resistance: Susceptible
[3]; strain MRSA #28
  antibiotic susceptibility/resistance: Susceptible
[3]; strain MRSA #29
  antibiotic susceptibility/resistance: Susceptible
[3]; strain MRSA #30
  antibiotic susceptibility/resistance: Resistant
